Read-outs that look alike come from different tables or passages of the source. Numbered stars: 1 amine (or outer) side, 2 acyl side, 3 side chain; on linkers, the order of the positions; unused ones are H or OH. Square brackets hold non-standard residues; d marks the D form. Peptide text beside a SMILES is read from it. * marks the point of attachment. 5FAM = O=C1OC2(c3ccc(O)cc3Oc3cc(O)ccc32)c2ccc(C(=O)*)cc21; NHCH2C6H4(4-CH2CONH2) = NC(=O)Cc1ccc(CN*)cc1; X1 = O=C(Cc1ccc(CN[*:1])cc1)[*:2]
Biological target: T1, IL-6R (Homo sapiens, UniProt P08887)
T1 construct: purchased Creative Biomart IL6R-584H
T1 sequence (P08887 20-355 limits assumed): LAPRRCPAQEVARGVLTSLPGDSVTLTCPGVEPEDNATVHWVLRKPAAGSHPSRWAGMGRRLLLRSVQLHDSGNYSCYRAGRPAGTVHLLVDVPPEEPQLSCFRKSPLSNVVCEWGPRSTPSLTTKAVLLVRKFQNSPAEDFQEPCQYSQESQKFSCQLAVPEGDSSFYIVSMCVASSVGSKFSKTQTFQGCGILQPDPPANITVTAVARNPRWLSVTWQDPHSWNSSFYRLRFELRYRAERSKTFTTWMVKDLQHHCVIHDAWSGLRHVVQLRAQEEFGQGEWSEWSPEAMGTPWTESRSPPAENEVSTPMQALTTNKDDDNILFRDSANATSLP
Test: MST binding affinity of resynthesized NNP hits to IL-6R
Procedure: Hit binding affinity to various targets were determined using Microscale Thermophoresis (MST). MST experiments were performed on a Monolith NT.115pico (NanoTemper Technologies GmbH, Munich, Germany). Measurements were performed at room temperature, in triplicate with incubation periods of 15, 30 and 45 minutes. […] Targets were labeled using Nanotemper Monolith 2nd Generation Protein Labeling Kits. RED-MALEIMIDE (Maleimide-647-dye) labeling kit was used for K-Ras and RED-NHS (NHS-647-dye) labeling kit was used for IL-6, IL-6R, TNFα and ASGPR. The buffer for the ASGPR contained 20 mM HEPES pH 7.4, 150 mM NaCl, 10 mM MgCl2, 2 mM CaCl2, 0.05% Pluronic F-127, and 1 mM DTT; for IL-6 contained 20 mM HEPES pH 7.4, 150 mM KCl, 10 mM MgCl2, and 0.1% Pluronic F-127; for the soluble IL-6 receptor 20 mM HEPES pH 7.4, 150 mM NaCl, 10 mM MgCl2, and 0.05% Tween-20; for K-Ras 20 mM HEPES pH 7.4, 150 mM NaCl, 10 mM MgCl2, 0.05% Tween-20 and 1 mM DTT; for TNFα 10 mM HEPES pH 7.4, 150 mM NaCl, 10 mM MgCl2, 0.05% Polysorbate-20. Triplicate data was analyzed using MO.AffinityAnalysis software (NanoTemper Technologies GmbH).

[1] = MST, NNP2 library hit, target SIL-6R, one-site binding model
[2] = read-out: MST (microscale thermophoresis) KD (nM) [95% conf. int], IL-6R, ester versus amide amino acid-PAM bond polymers, library NNP2

Row | SMILES | Kd [1] | Kd [2]
1 | CC(C)C[C@H](NC(=O)[C@@H](CCCNC(=N)N)NC(=O)[C@@H](C)NC(=O)Cc1ccc(CNC(=O)[C@H](CC(C)C)NC(=O)[C@@H](CCCNC(=N)N)NC(=O)[C@@H](CCC(=O)O)NC(=O)Cc2ccc(CNC(=O)[C@H](C)NC(=O)[C@@H](CCCCN)NC(=O)[C@@H](Cc3ccc(O)cc3)NC(=O)Cc3ccc(CNC(=O)[C@H](Cc4ccccc4)NC(=O)[C@@H](CC(N)=O)NC(=O)[C@@H](Cc4ccc(O)cc4)NC(=O)Cc4ccc(CNC(=O)[C@H](CC(C)C)NC(=O)[C@H](NC(=O)[C@@H](CC(N)=O)NC(=O)Cc5ccc(CNC(=O)[C@H](Cc6ccccc6)NC(=O)[C@@H](CO)NC(=O)[C@@H](CCC(=O)O)NC(=O)Cc6ccc(CNC(=O)[C@H](Cc7ccccc7)NC(=O)[C@@H](Cc7c[nH]c8ccccc78)NC(=O)[C@@H](CCCNC(=N)N)NC(=O)c7ccc8c(c7)C(=O)OC87c8ccc(O)cc8Oc8cc(O)ccc87)cc6)cc5)[C@H](C)O)cc4)cc3)cc2)cc1)C(=O)NCc1ccc(CC(=O)N[C@H](CCC(=O)O)C(=O)N[C@H](CCCNC(=N)N)C(=O)N[C@H](C(=O)NCc2ccc(CC(=O)N[C@H](Cc3ccccc3)C(=O)N[C@H](CCCCN)C(=O)NCC(=O)NCc3ccc(CC(N)=O)cc3)cc2)C(C)C)cc1 [IL6R-87-3, Fluorescein-(D)Arg-(D)Trp-(L)Phe-PAM-(D)Glu-(D)Ser-(L)Phe-PAM-(D)Asn-(D)Thr-(L)Leu-PAM-(D)Tyr-(D)Asn-(L)Phe-PAM-(D)Tyr-(D)Lys-(L)Ala-PAM-(D)Glu-(D)Arg-(L)Leu-PAM-(D)Ala-(D)Arg- (L)Leu-PAM-(D)Glu-(D)Arg-(L)Val-PAM-(D)Phe-(D)Lys-Gly-PAM] (5FAM-[dR][dW]F[X1][dE][dS]F[X1][dN][dT]L[X1][dY][dN]F[X1][dY][dK]A[X1][dE][dR]L[X1][dA][dR]L[X1][dE][dR]V[X1][dF][dK]G-{NHCH2C6H4(4-CH2CONH2)}) | 19 nM | –
2 | CC(C)C[C@H](NC(=O)[C@@H](CCCNC(=N)N)NC(=O)[C@@H](C)NC(=O)Cc1ccc(COC(=O)[C@H](Cc2ccccc2)NC(=O)[C@@H](CCCNC(=N)N)NC(=O)[C@@H](CC(N)=O)NC(=O)Cc2ccc(COC(=O)[C@H](Cc3ccccc3)NC(=O)[C@@H](CCCCN)NC(=O)[C@@H](C)NC(=O)Cc3ccc(COC(=O)[C@H](CC(C)C)NC(=O)[C@@H](CCC(=O)O)NC(=O)[C@@H](CCCCN)NC(=O)Cc4ccc(COC(=O)[C@@H](NC(=O)[C@@H](CCC(=O)O)NC(=O)[C@@H](Cc5ccccc5)NC(=O)Cc5ccc(COC(=O)[C@H](CC(C)C)NC(=O)[C@@H](CCCNC(=N)N)NC(=O)[C@@H](CC(C)C)NC(=O)Cc6ccc(COC(=O)[C@H](Cc7ccccc7)NC(=O)[C@@H](Cc7c[nH]c8ccccc78)NC(=O)[C@@H](CCCNC(=N)N)NC(=O)c7ccc8c(c7)C(=O)OC87c8ccc(O)cc8Oc8cc(O)ccc87)cc6)cc5)C(C)C)cc4)cc3)cc2)cc1)C(=O)OCc1ccc(CC(=O)N[C@H](Cc2c[nH]c3ccccc23)C(=O)N[C@H](CCCCN)C(=O)N[C@@H](CC(C)C)C(=O)OCc2ccc(CC(=O)N[C@H](C)C(=O)N[C@@H](C(=O)N[C@@H](CC(C)C)C(=O)OCc3ccc(CC(N)=O)cc3)C(C)C)cc2)cc1 [IL6R-93-13] | – | 130 nM
3 | CC(C)C[C@H](NC(=O)[C@@H](CCCNC(=N)N)NC(=O)[C@@H](C)NC(=O)Cc1ccc(COC(=O)[C@H](CC(C)C)NC(=O)[C@@H](CCCNC(=N)N)NC(=O)[C@@H](CCC(=O)O)NC(=O)Cc2ccc(COC(=O)[C@H](C)NC(=O)[C@@H](CCCCN)NC(=O)[C@@H](Cc3ccc(O)cc3)NC(=O)Cc3ccc(COC(=O)[C@H](C)NC(=O)[C@@H](CCCNC(=N)N)NC(=O)[C@@H](Cc4ccccc4)NC(=O)Cc4ccc(COC(=O)[C@H](Cc5ccccc5)NC(=O)[C@@H](CO)NC(=O)[C@@H](CCCNC(=N)N)NC(=O)Cc5ccc(COC(=O)[C@@H](NC(=O)[C@@H](CO)NC(=O)[C@@H](Cc6ccc(O)cc6)NC(=O)Cc6ccc(COC(=O)[C@H](Cc7ccccc7)NC(=O)[C@H](NC(=O)[C@@H](CC(N)=O)NC(=O)c7ccc8c(c7)C(=O)OC87c8ccc(O)cc8Oc8cc(O)ccc87)C(C)C)cc6)C(C)C)cc5)cc4)cc3)cc2)cc1)C(=O)OCc1ccc(CC(=O)N2CCC[C@@H]2C(=O)N[C@H](CCCNC(=N)N)C(=O)N[C@@H](C)C(=O)OCc2ccc(CC(=O)N[C@H](Cc3ccccc3)C(=O)N[C@H](CCCCN)C(=O)NCC(=O)OCc3ccc(CC(N)=O)cc3)cc2)cc1 [IL6R-93-12] | – | 3.7 nM
4 | CC(C)C[C@H](NC(=O)[C@@H](CCCNC(=N)N)NC(=O)[C@@H](C)NC(=O)Cc1ccc(CNC(=O)[C@H](Cc2ccccc2)NC(=O)[C@@H](CCC(=O)O)NC(=O)[C@H]2CCCN2C(=O)Cc2ccc(CNC(=O)[C@H](Cc3ccccc3)NC(=O)[C@@H](CCCCN)NC(=O)[C@@H](C)NC(=O)Cc3ccc(CNC(=O)[C@H](CC(C)C)NC(=O)[C@@H](CCCNC(=N)N)NC(=O)[C@@H](Cc4c[nH]c5ccccc45)NC(=O)Cc4ccc(CNC(=O)[C@H](C)NC(=O)[C@@H](CCCCN)NC(=O)[C@H]5CCCN5C(=O)Cc5ccc(CNC(=O)[C@@H](NC(=O)[C@@H](CC(N)=O)NC(=O)[C@H]6CCCN6C(=O)Cc6ccc(CNC(=O)[C@H](Cc7ccccc7)NC(=O)[C@@H](Cc7c[nH]c8ccccc78)NC(=O)[C@@H](CCCNC(=N)N)NC(=O)c7ccc8c(c7)C(=O)OC87c8ccc(O)cc8Oc8cc(O)ccc87)cc6)C(C)C)cc5)cc4)cc3)cc2)cc1)C(=O)NCc1ccc(CC(=O)N[C@H](Cc2c[nH]c3ccccc23)C(=O)N[C@H](CCCCN)C(=O)N[C@@H](CC(C)C)C(=O)NCc2ccc(CC(=O)N[C@H](Cc3ccccc3)C(=O)N[C@H](CCCCN)C(=O)NCC(=O)NCc3ccc(CC(N)=O)cc3)cc2)cc1 [IL6R-87-6, Fluorescein-(D)Arg-(D)Trp-(L)Phe-PAM-(D)Pro-(D)Asn-(L)Val-PAM-(D)Pro-(D)Lys-(L)Ala-PAM-(D)Trp-(D)Arg-(L)Leu-PAM-(D)Ala-(D)Lys-(L)Phe-PAM-(D)Pro-(D)Glu-(L)Phe-PAM-(D)Ala-(D)Arg- (L)Leu-PAM-(D)Trp-(D)Lys-(L)Leu-PAM-(D)Phe-(D)Lys-Gly-PAM] (5FAM-[dR][dW]F[X1][dP][dN]V[X1][dP][dK]A[X1][dW][dR]L[X1][dA][dK]F[X1][dP][dE]F[X1][dA][dR]L[X1][dW][dK]L[X1][dF][dK]G-{NHCH2C6H4(4-CH2CONH2)}) | 3.3 nM | –
